tested on: Human Umbilical Vein Endothelial cells (VEGF-stimulated HUVEC proliferation); experiment: HUVEC Proliferation Assay (VEGF-stimulated); type: cell-based; conditions: VEGF 50 ng/mL, 72 h incubation, CyQuant readout, read-out: inhibited VEGF-stimulated HUVEC proliferation at a level below (IC50)
Outline: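 Pooled-donor HUVECs (passage 2–3) seeded in DMEM+10% FBS for 22 h, then pre-treated 2–3 h with five-point, five-fold compound dilutions (0.25% DMSO final). Stimulated with 50 ng/mL VEGF (bFGF 20 ng/mL on separate plates) for 72 h at 37 °C. CyQuant fluorescence (485/530 nm) after freeze-thaw; IC50 from 4-parameter fit.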

Row | Structure (SMILES) | IC50 [nM]
1 | CC(C)N1CCN(c2cc(NC(=O)c3cccnc3Nc3ccc4cn[nH]c4c3)ccc2C(C)(C)C)CC1 [Example 103, N-[4-tert-Butyl-3-(4-isopropyl-piperazin-1-yl)-phenyl]-2-(1H-indazol-6-ylamino)-nicotinamide] | < 50
2 | CC1(C)COc2cc(NC(=O)c3cccnc3Nc3ccc4cn[nH]c4c3)ccc21 [Example 106, N-(3,3-Dimethyl-2,3-dihydro-benzofuran-6-yl)-2-(1H-indazol-6-ylamino)-nicotinamide] | < 50
3 | O=C(Nc1cc(OC2CCNCC2)cc(C(F)(F)F)c1)c1cccnc1Nc1ccc2cn[nH]c2c1 [Example 74, 2-(1H-Indazol-6-ylamino)-N-[3-(piperidin-4-yloxy)-5-trifluoromethyl-phenyl]-nicotinamide] | < 50
4 | O=C(Nc1ccc(C(O)(C(F)(F)F)C(F)(F)F)cc1)c1cccnc1Nc1cccc2c1CNC2=O [Example 608, 2-(1-Oxo-2,3-dihydro-1H-isoindol-4-ylamino)-N-[4-(2,2,2-trifluoro-1-hydroxy-1-trifluoromethyl-ethyl)-phenyl]-nicotinamide] | < 50
5 | O=C(Nc1ccc(C(F)(F)C(F)(F)F)c(OCCN2CCCCC2)c1)c1cccnc1Nc1ccc2cn[nH]c2c1 [Example 81, 2-(1H-Indazol-6-ylamino)-N-[4-pentafluoroethyl-3-(2-piperidin-1-yl-ethoxy)-phenyl]-nicotinamide] | < 50
6 | CC(=O)N1CC(C)(C)c2ccc(NC(=O)c3cccnc3Nc3ccc4cn[nH]c4c3)cc21 [Example 87, N-(1-Acetyl-3,3-dimethyl-2,3-dihydro-1H-indol-6-yl)-2-(1H-indazol-6-ylamino)-nicotinamide] | < 50
7 | O=C(Nc1cccc(C(F)(F)F)c1)c1ccc(F)nc1Nc1ccc2cn[nH]c2c1 [Example 68, [6-Fluoro-2-(1H-indazol-6-ylamino)(3-pyridyl)]-N-[3-(trifluoromethyl)phenyl]carboxamide] | < 50
8 | CN1CCC(c2cc(NC(=O)c3cccnc3Nc3ccc4cn[nH]c4c3)cc(C(F)(F)F)c2)CC1 [Example 90, 2-(1H-Indazol-6-ylamino)-N-[3-(1-methyl-piperidin-4-yl)-5-trifluoromethyl-phenyl]-nicotinamide] | < 50
9 | CN1CCN(Cc2cc(NC(=O)c3cccnc3Nc3ccc4cn[nH]c4c3)ccc2C(F)(F)C(F)(F)F)CC1 [Example 108, 2-(1H-Indazol-6-ylamino)-N-[3-(4-methyl-piperazin-1-ylmethyl)-4-pentafluoroethyl-phenyl]-nicotinamide] | < 50
10 | O=C(Nc1ccc(-c2ccccc2)cc1)c1cccnc1Nc1ccc2cn[nH]c2c1 [Example 45, [2-(1H-Indazol-6-ylamino)(3-pyridyl)]-N-(4-phenylphenyl)carboxamide] | < 50
11 | CC1(C)CC(=O)Nc2nc(NC(=O)c3cccnc3Nc3ccc4cn[nH]c4c3)ccc21 [Example 593, N-(5,5-Dimethyl-7-oxo-5,6,7,8-tetrahydro-[1,8]naphthyridin-2-yl)-2-(1H-indazol-6-ylamino)-nicotinamide] | < 50
12 | CN1CCC[C@@H]1COc1cc(NC(=O)c2cccnc2Nc2ccc3cn[nH]c3c2)cc(C(F)(F)F)c1 [Example 577, 2-(1H-Indazol-6-ylamino)-N-(3-((((2R)-1-methyl-2-pyrrolidinyl)methyl)oxy)-5-(trifluoromethyl)phenyl)-3-pyridinecarboxamide] | < 50
13 | CC1(C)CN(C2CCNCC2)c2cc(NC(=O)c3cccnc3Nc3ccc4cn[nH]c4c3)ccc21 [Example 100, N-(3,3-Dimethyl-1-piperidin-4-yl-2,3-dihydro-1H-indol-6-yl)-2-(1H-indazol-6-ylamino)-nicotinamide] | < 50
14 | O=C(Nc1ccc(C(F)(F)C(F)(F)F)c(OC[C@@H](O)CN2CCCC2)c1)c1cccnc1Nc1ccc2cn[nH]c2c1 [Example 82, N-[3-(2-Hydroxy-3-pyrrolidin-1-yl-propoxy)-4-pentafluoroethyl-phenyl]-2-(1H-indazol-6-ylamino)-nicotinamide] | < 50
15 | CC1(C)CNc2cc(NC(=O)c3cccnc3Nc3ccc4cn[nH]c4c3)ccc21 [Example 99, N-(3,3dimethyl-2,3-dihydro-1H-indol-6-yl)-2-(1H-indazol-6-ylamino)-nicotinamide] | < 50
16 | COc1ccc(NC(=O)c2cccnc2Nc2ccc3cn[nH]c3c2)cc1OC1CCN(C)CC1 [Example 38, [2-(1H-Indazol-6-ylamino)(3-pyridyl)]-N-[4-methoxy-3-(1-methyl(4-piperidyl)oxy)phenyl]carboxamide] | < 50
17 | Cc1cc(=O)[nH]c2cc(NC(=O)c3cccnc3Nc3ccc4cn[nH]c4c3)ccc12 [Example 14, [2-(1H-Indazol-6-ylamino)(3-pyridyl)]-N-(4-methyl-2-oxo-1,2-dihydroquinol-7-yl)carboxamide] | < 50
18 | CC(C)(C)c1ccc(NC(=O)c2cccnc2Nc2ccc3cn[nH]c3c2)cc1NCCO [Example 115, N-[4-tert-Butyl-3-(2-hydroxy-ethylamino)-phenyl]-2-(1H-indazol-6-ylamino)-nicotinamide] | < 50
19 | CC1(C)CCC(C)(C)c2cc(NC(=O)c3cccnc3Nc3ccc4cn[nH]c4c3)ccc21 [Example 77, 2-(1H-Indazol-6-ylamino)-N-(5,5,8,8-tetramethyl-5,6,7,8-tetrahydro-naphthalen-2-yl)-nicotinamide] | < 50
20 | CC(C)(C)c1ccc(NC(=O)c2cccnc2Nc2ccc3cn[nH]c3c2)cc1/C=C/CCN1CCCC1 [Example 55, N-[3-((1E)-4-Pyrrolidinylbut-1-enyl)-4-(tert-butyl)phenyl][2-(1H-indazol-6-ylamino)(3-pyridyl)]carboxamide] | < 50
21 | CN(C)CC(=O)Nc1cc(NC(=O)c2cccnc2Nc2ccc3cn[nH]c3c2)ccc1C(C)(C)C [Example 613, N-(4-(1,1-Dimethylethyl)-3-((N,N-dimethylglycyl)amino)phenyl)-2-(1H-indazol-6-ylamino)-3-pyridinecarboxamide] | < 50
22 | CN1CC(C)(C)Oc2ccc(NC(=O)c3cccnc3Nc3ccc4cn[nH]c4c3)cc21 [Example 92, 2-(1H-Indazol-6-ylamino)-N-(2,2,4-trimethyl-3,4-dihydro-2H-benzo[1,4]oxazin-6-yl)-nicotinamide] | < 50
23 | CC1(C)CNC(=O)c2cc(NC(=O)c3cccnc3Nc3ccc4cn[nH]c4c3)ccc21 [Example 105, N-(4,4-Dimethyl-1-oxo-1,2,3,4-tetrahydro-isoquinolin-7-yl)-2-(1H-indazol-6-ylamino)-nicotinamide] | < 50
24 | CN1CCC[C@H]1COc1cc(NC(=O)c2cccnc2Nc2ccc3cn[nH]c3c2)ccc1C(F)(F)F [Example 616, 2-(1H-indazol-6-ylamino)-N-(3-((((2S)-1-methyl-2-pyrrolidinyl)methyl)oxy)-4-(trifluoromethyl)phenyl)-3-pyridinecarboxamide] | < 50
25 | CC1(C)CN(S(C)(=O)=O)c2cc(NC(=O)c3cccnc3Nc3ccc4cn[nH]c4c3)ccc21 [Example 625, N-(3,3-dimethyl-1-(methylsulfonyl)-2,3-dihydro-1H-indol-6-yl)-2-(1H-indazol-6-ylamino)-3-pyridinecarboxamide] | < 50
26 | CC(C)(C)c1ccc(NC(=O)c2cccnc2Nc2ccc3cn[nH]c3c2)cc1NCCN1CCOCC1 [Example 116, N-[4-tert-Butyl-3-(2-morpholin-4-yl-ethylamino)-phenyl]-2-(1H-indazol-6-ylamino)-nicotinamide] | < 50
